Starred links: 1 amine or outer side, 2 acyl side, 3 side chain; linkers in the order of their positions; H or OH if unused. Non-standard residues stand in square brackets, D forms with d. Residues, ends and D or L forms follow the SMILES beside them. ξ: configuration not given here. X12 = COc1ccc(COC(C)(C)C[C@@H](C(=O)[*:2])N(C)[*:1])cc1; X8 = CN([C@@H](CC(C)(C)OCc1ccccc1)C(=O)[*:2])[*:1]; MeBmt = C/C=C/C[C@@H](C)[C@@H](O)[C@H](NC)C(=O)O; X3 = CN([C@H](SCCCN1CCOCC1)C(=O)[*:2])[*:1]; X1 = CCN(CC)CCCS[C@H](C(=O)[*:2])N(C)[*:1]; X7 = CCN(CC)CCS[C@@H](C(=O)[*:2])N(C)[*:1]; X13 = CCOCOC(C)(C)CC(C(=O)[*:2])N(C)[*:1]; X2 = CCN(CC)CCS[C@H](C(=O)[*:2])N(C)[*:1]; X4 = CC=CCC(C)C(O)C(C(=O)[*:2])N(C)[*:1]; X9 = CN(C(SCCCN1CCOCC1)C(=O)[*:2])[*:1]; NMeIle(3ξ) = CCC(C)[C@H](NC)C(=O)O; NMeL = CN[CH](CC(C)C)C(=O)O; NMeV = CN[CH](C(=O)O)C(C)C; Abu = CC[CH](N)C(=O)O

EC50 data for 20 molecules are collected here from patent publication US20160039879A1, “NOVEL CYCLOSPORIN DERIVATIVES AND USES THEREOF” (S&T Global Inc., priority 2013, published 2016).

The first assay deals with HCV replicon in cell line ET (luc-ubi-neo/ET), Huh7 human hepatoma cell line. The assay is described as follows: HCV subgenomic replicon assay (luciferase end point). The format is cell-based. The settings on record: Hepatitis C virus, Huh-7, Table 10, HCV replicon, read-out: Antiviral activity EC50. For orientation: Replicon systems follow genome replication, usually without infectious particles.
The term EC50 denotes the concentration giving half of the maximal effect. Take `C/C=C/C[C@@H](C)[C@@H](O)[C@H]1C(=O)N[C@@H](CC)C(=O)N(C)[C@H](SCCN(CC)CC)C(=O)N(C)[C@@H](C(C)CC)C(=O)N[C@@H](C(C)C)C(=O)N(C)[C@@H](CC(C)C)C(=O)N[C@@H](C)C(=O)N[C@H](C)C(=O)N(C)[C@@H](CC(C)C)C(=O)N(C)[C@@H](CC(C)C)C(=O)N(C)[C@@H](C(C)C)C(=O)N1C` (stereo partly drawn) [[(R)-2-(N,N-Diethylamino)ethylthio-Sar]-3-[NMeIle]-4-cyclosporin] (cyclo(A[dA][NMeL][NMeL][NMeV][MeBmt][Abu][X2][NMeIle(3ξ)]V[NMeL])): the EC50 was found to be 40 nM.

Still in this assay, the particulars now being: Hepatitis C virus, Huh-7, Table 11, HCV replicon, read-out: Antiviral activity EC50.
Consider `C/C=C/C[C@@H](C)[C@@H](O)[C@H]1C(=O)N[C@@H](CC)C(=O)N(C)[C@H](SCCCN2CCOCC2)C(=O)N(C)[C@@H](CC(C)(C)O)C(=O)N[C@@H](C(C)C)C(=O)N(C)[C@@H](CC(C)C)C(=O)N[C@@H](C)C(=O)N[C@H](C)C(=O)N(C)[C@@H](CC(C)C)C(=O)N(C)[C@@H](CC(C)C)C(=O)N(C)[C@@H](C(C)C)C(=O)N1C` [[(R)-3-(N-Morpholino)propylthio-Sar]-3-[(γ-hydroxy)-NMeLeu]-4-cyclosporin], for which the EC50 amounted to 50 nM. Same read-out and setting: with `C/C=C/C[C@@H](C)[C@@H](O)[C@H]1C(=O)N[C@@H](CC)C(=O)N(C)[C@H](SCCCN2CCOCC2)C(=O)N(C)[C@@H](CC(C)(C)OC)C(=O)N[C@@H](C(C)C)C(=O)N(C)[C@@H](CC(C)C)C(=O)N[C@@H](C)C(=O)N[C@H](C)C(=O)N(C)[C@@H](CC(C)C)C(=O)N(C)[C@@H](CC(C)C)C(=O)N(C)[C@@H](C(C)C)C(=O)N1C` [[(R)-3-(N-Morpholino)propylthio-Sar]-3-[(γ-methoxy)-NMeLeu]-4-cyclosporin] the figure was 60 nM.

The same assay, now with this note: Hepatitis C virus, Huh-7, Table 13, HCV replicon, read-out: Antiviral activity EC50.
For `C/C=C/C[C@@H](C)[C@@H](O)[C@H]1C(=O)N[C@@H](CC)C(=O)N(C)[C@H](CSCCN(C)C)C(=O)N(C)[C@@H](CC(C)C)C(=O)N[C@@H](C(C)C)C(=O)N(C)[C@@H](CC(C)C)C(=O)N[C@@H](C)C(=O)N[C@H](C)C(=O)N(C)[C@@H](CC(C)C)C(=O)N(C)[C@@H](CC(C)C)C(=O)N(C)[C@@H](C(C)C)C(=O)N1C` (single isomer, unassigned) [Example 6, isomer B], the EC50 was found to be 170 nM.

For `C/C=C/C[C@@H](C)[C@@H](O)[C@H]1C(=O)N[C@@H](CC)C(=O)N(C)[C@H](SCCCN(CC)CC)C(=O)N(C)[C@@H](C(C)C)C(=O)N[C@@H](C(C)C)C(=O)N(C)[C@@H](CC(C)C)C(=O)N[C@@H](C)C(=O)N[C@H](C)C(=O)N(C)[C@@H](CC(C)C)C(=O)N(C)[C@@H](CC(C)C)C(=O)N(C)[C@@H](C(C)C)C(=O)N1C` [[(R)-3-(N,N-Diethylamino)propylthio-Sar]-3-[N-MeVal]-4-cyclosporin] (cyclo(A[dA][NMeL][NMeL][NMeV][MeBmt][Abu][X1][NMeV]V[NMeL])), the EC50 was 70 nM.

With `C/C=C/C[C@@H](C)[C@@H](O)[C@H]1C(=O)N[C@@H](CC)C(=O)N(C)[C@H](SCCCN(CC)CC)C(=O)N(C)[C@@H](C(C)CC)C(=O)N[C@@H](C(C)C)C(=O)N(C)[C@@H](CC(C)C)C(=O)N[C@@H](C)C(=O)N[C@H](C)C(=O)N(C)[C@@H](CC(C)C)C(=O)N(C)[C@@H](CC(C)C)C(=O)N(C)[C@@H](C(C)C)C(=O)N1C` (stereo partly drawn) [[(R)-3-(N,N-Diethylamino)propylthio-Sar]-3-[NMeIle]-4-cyclosporin] (cyclo(A[dA][NMeL][NMeL][NMeV][MeBmt][Abu][X1][NMeIle(3ξ)]V[NMeL])), the EC50 came to 80 nM.

On to `C/C=C/C[C@@H](C)[C@@H](O)[C@H]1C(=O)N[C@@H](CC)C(=O)N(C)[C@H](CSCCN(CC)CC)C(=O)N(C)[C@@H](CC(C)C)C(=O)N[C@@H](C(C)C)C(=O)N(C)[C@@H](CC(C)C)C(=O)N[C@@H](C)C(=O)N[C@H](C)C(=O)N(C)[C@@H](CC(C)C)C(=O)N(C)[C@@H](CC(C)C)C(=O)N(C)[C@@H](C(C)C)C(=O)N1C` (single isomer, unassigned) [Example 7, isomer B], for which the 50% effective concentration (EC50) was determined as 160 nM.

The assay is the same for the next values; noted with them: Hepatitis C virus, Huh-7, Table 15, HCV replicon, read-out: Antiviral activity EC50.
Regarding `C/C=C/C[C@@H](C)[C@@H](O)[C@H]1C(=O)N[C@@H](CC)C(=O)N(C)[C@H](CSCCCCC(C)(C)O)C(=O)N(C)[C@@H](CC(C)(C)O)C(=O)N[C@@H](C(C)C)C(=O)N(C)[C@@H](CC(C)C)C(=O)N[C@@H](C)C(=O)N[C@H](C)C(=O)N(C)[C@@H](CC(C)C)C(=O)N(C)[C@@H](CC(C)C)C(=O)N(C)[C@@H](C(C)C)C(=O)N1C`, the concentration giving a half-maximal response (EC50) stood at 60 nM. `C/C=C/C[C@@H](C)[C@@H](O)[C@H]1C(=O)N[C@@H](CC)C(=O)N(C)[C@H](CSCC[C@H](CO)CCC)C(=O)N(C)[C@@H](CC(C)(C)O)C(=O)N[C@@H](C(C)C)C(=O)N(C)[C@@H](CC(C)C)C(=O)N[C@@H](C)C(=O)N[C@H](C)C(=O)N(C)[C@@H](CC(C)C)C(=O)N(C)[C@@H](CC(C)C)C(=O)N(C)[C@@H](C(C)C)C(=O)N1C`: the EC50 is 70 nM. The same measure, in the same setting: with `C/C=C/C[C@@H](C)[C@@H](O)[C@H]1C(=O)N[C@@H](CC)C(=O)N(C)[C@H](CSC/C(=C/CN(CC)CC)CCC)C(=O)N(C)[C@@H](CC(C)(C)O)C(=O)N[C@@H](C(C)C)C(=O)N(C)[C@@H](CC(C)C)C(=O)N[C@@H](C)C(=O)N[C@H](C)C(=O)N(C)[C@@H](CC(C)C)C(=O)N(C)[C@@H](CC(C)C)C(=O)N(C)[C@@H](C(C)C)C(=O)N1C` the figure was 60 nM. The same measure, in the same setting: with `C/C=C/C[C@@H](C)[C@@H](O)[C@H]1C(=O)N[C@@H](CC)C(=O)N(C)[C@H](CSCC[C@@H](CO)CCC)C(=O)N(C)[C@@H](CC(C)(C)O)C(=O)N[C@@H](C(C)C)C(=O)N(C)[C@@H](CC(C)C)C(=O)N[C@@H](C)C(=O)N[C@H](C)C(=O)N(C)[C@@H](CC(C)C)C(=O)N(C)[C@@H](CC(C)C)C(=O)N(C)[C@@H](C(C)C)C(=O)N1C` the figure was 70 nM; with `C/C=C/C[C@@H](C)[C@@H](O)[C@H]1C(=O)N[C@@H](CC)C(=O)N(C)[C@H](CSCCCCC(CO)CO)C(=O)N(C)[C@@H](CC(C)(C)O)C(=O)N[C@@H](C(C)C)C(=O)N(C)[C@@H](CC(C)C)C(=O)N[C@@H](C)C(=O)N[C@H](C)C(=O)N(C)[C@@H](CC(C)C)C(=O)N(C)[C@@H](CC(C)C)C(=O)N(C)[C@@H](C(C)C)C(=O)N1C`, 70 nM.

Staying with this assay, now noted: Table 10, HCV replicon, read-out: Antiviral activity EC50.
As to `CC=CCC(C)C(O)C1C(=O)NC(CC)C(=O)N(C)C(SCCN(CC(C)C)C(C)C)C(=O)N(C)C(CC(C)C)C(=O)NC(C(C)C)C(=O)N(C)C(CC(C)C)C(=O)NC(C)C(=O)NC(C)C(=O)N(C)C(CC(C)C)C(=O)N(C)C(CC(C)C)C(=O)N(C)C(C(C)C)C(=O)N1C` [(S)-2-(N-iso-Butyl-N-iso-propylamino)ethylthio-Sar]-3-cyclosporin], the concentration for a half-maximal effect (EC50) is 4650 nM.

With `C/C=C/C[C@@H](C)[C@@H](O)[C@H]1C(=O)N[C@@H](CC)C(=O)N(C)[C@@H](SCCN(CC)CC)C(=O)N(C)[C@@H](C(C)C)C(=O)N[C@@H](C(C)C)C(=O)N(C)[C@@H](CC(C)C)C(=O)N[C@@H](C)C(=O)N[C@H](C)C(=O)N(C)[C@@H](CC(C)C)C(=O)N(C)[C@@H](CC(C)C)C(=O)N(C)[C@@H](C(C)C)C(=O)N1C` [(S)-2-(N,N-Diethylamino)ethylthio-Sar]-3-[N-MeVal]-4-cyclosporin] (cyclo(A[dA][NMeL][NMeL][NMeV][MeBmt][Abu][X7][NMeV]V[NMeL])), the EC50 is 3660 nM.

As to `C/C=C/C[C@@H](C)[C@@H](O)[C@H]1C(=O)N[C@@H](CC)C(=O)N(C)[C@H](SCCN(CC)CC)C(=O)N(C)[C@@H](C(C)C)C(=O)N[C@@H](C(C)C)C(=O)N(C)[C@@H](CC(C)C)C(=O)N[C@@H](C)C(=O)N[C@H](C)C(=O)N(C)[C@@H](CC(C)C)C(=O)N(C)[C@@H](CC(C)C)C(=O)N(C)[C@@H](C(C)C)C(=O)N1C` [(R)-2-(N,N-Diethylamino)ethylthio-Sar]-3-[N-MeVal]-4-cyclosporin] (cyclo(A[dA][NMeL][NMeL][NMeV][MeBmt][Abu][X2][NMeV]V[NMeL])), the concentration for a half-maximal effect (EC50) is 40 nM.

On to “(S)-2-(N,N-Diethylamino)ethylthio-Sar]-3-[N-MeIle]-4-cyclosporin”, for which the EC50 turned out to be 1870 nM. Same read-out and setting: to “(R)-2-(N-iso-Butyl-N-iso-propylamino)ethylthio-Sar]-3-cyclosporin” belongs 480 nM.

The assay is the same for the next values; noted with them: Table 11, HCV replicon, read-out: Antiviral activity EC50.
For the molecule `C/C=C/C[C@@H](C)[C@@H](O)[C@H]1C(=O)N[C@@H](CC)C(=O)N(C)[C@H](SCCCN2CCOCC2)C(=O)N(C)[C@@H](CC(C)(C)OCc2ccc(OC)cc2)C(=O)N[C@@H](C(C)C)C(=O)N(C)[C@@H](CC(C)C)C(=O)N[C@@H](C)C(=O)N[C@H](C)C(=O)N(C)[C@@H](CC(C)C)C(=O)N(C)[C@@H](CC(C)C)C(=O)N(C)[C@@H](C(C)C)C(=O)N1C` (cyclo(A[dA][NMeL][NMeL][NMeV][MeBmt][Abu][X3][X12]V[NMeL])), the concentration for a half-maximal effect (EC50) worked out at 280 nM. Same read-out and setting: to `C/C=C/C[C@@H](C)[C@@H](O)[C@H]1C(=O)N[C@@H](CC)C(=O)N(C)[C@H](SCCCN2CCOCC2)C(=O)N(C)[C@@H](CC(C)(C)OCc2ccccc2)C(=O)N[C@@H](C(C)C)C(=O)N(C)[C@@H](CC(C)C)C(=O)N[C@@H](C)C(=O)N[C@H](C)C(=O)N(C)[C@@H](CC(C)C)C(=O)N(C)[C@@H](CC(C)C)C(=O)N(C)[C@@H](C(C)C)C(=O)N1C` [[(R)-(3-(N-Morpholino)propylthio-Sar]-3-[(γ-benzyloxy)-N-MeLeu]-4-cyclosporin] (cyclo(A[dA][NMeL][NMeL][NMeV][MeBmt][Abu][X3][X8]V[NMeL])) belongs 280 nM. For the molecule `CC=CCC(C)C(O)C1C(=O)NC(CC)C(=O)N(C)C(SCCCN2CCOCC2)C(=O)N(C)C(CC(C)(C)OCOCC)C(=O)NC(C(C)C)C(=O)N(C)C(CC(C)C)C(=O)NC(C)C(=O)NC(C)C(=O)N(C)C(CC(C)C)C(=O)N(C)C(CC(C)C)C(=O)N(C)C(C(C)C)C(=O)N1C` (centres unmarked) (cyclo([X4][Abu][X9][X13]V[NMeL]AA[NMeL][NMeL][NMeV]); configuration not given here), the 50% effective concentration (EC50) was 160 nM.
